In PubChem BioAssay (NCI):
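Five concentrations, 48 hours, 96-well plates. At the GI50, growth is halved. TGI: concentration producing complete growth inhibition.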

How the values were obtained:
Experiment in all cases: growth of human tumour cells (NCI), 48 h
HT29 colon = test system: HT29 colon
A498 renal = test system: A498 renal
HCT-15 colon = test system: HCT-15 colon
SK-MEL-2 melanoma = test system: SK-MEL-2 melanoma
OVCAR-3 ovarian = test system: OVCAR-3 ovarian
SF-295 CNS = test system: SF-295 CNS
HOP-92 NSCLC = test system: HOP-92 NSCLC
U251 CNS = test system: U251 CNS
MOLT-4 leukemia = test system: MOLT-4 leukemia
SW-620 colon = test system: SW-620 colon

| Structure (SMILES) | GI50 (HT29 colon) | TGI (HT29 colon) | GI50 (A498 renal) | TGI (A498 renal) | GI50 (HCT-15 colon) | TGI (HCT-15 colon) | GI50 (SK-MEL-2 melanoma) | TGI (SK-MEL-2 melanoma) | GI50 (OVCAR-3 ovarian) | TGI (OVCAR-3 ovarian) | GI50 (SF-295 CNS) | TGI (SF-295 CNS) | GI50 (HOP-92 NSCLC) | TGI (HOP-92 NSCLC) | GI50 (U251 CNS) | TGI (U251 CNS) | GI50 (MOLT-4 leukemia) | TGI (MOLT-4 leukemia) | GI50 (SW-620 colon) | TGI (SW-620 colon) |
| --- | --- | --- | --- | --- | --- | --- | --- | --- | --- | --- | --- | --- | --- | --- | --- | --- | --- | --- | --- | --- |
| COc1cc2c3c(cccc3c1)C(=O)N(CCN1CCCC1)C2=O | 1.79 µM | 20.2 µM | 1.96 µM | 3.69 µM | 2.63 µM | > 100 µM | 3.14 µM | 6.61 µM | 2.3 µM | 6.29 µM | 2.46 µM | 6.44 µM | 1.55 µM | 4.98 µM | 2.75 µM | 9.59 µM | 3.09 µM | > 100 µM | 2.04 µM | 15.7 µM |
| O=C(Nc1cccc(-n2ccc3c(NC(=O)c4ccccc4)nccc32)c1)c1cccc(C(F)(F)F)c1 | 0.0332 µM | 0.388 µM | 0.02 µM | 0.0772 µM | 0.0357 µM | – | 0.0547 µM | 14.3 µM | 0.0205 µM | 0.0463 µM | 0.0278 µM | 0.468 µM | 0.281 µM | 8.07 µM | 0.0402 µM | 6.16 µM | 0.168 µM | > 100 µM | 0.0411 µM | 13.4 µM |
| O=[N+]([O-])[C@@H]1C2C=CC(C2)[C@H]1Cl (some centres undefined) | – | > 100 µM | – | > 100 µM | – | > 100 µM | – | > 100 µM | – | > 100 µM | – | > 100 µM | – | > 100 µM | – | > 100 µM | – | > 100 µM | – | > 100 µM |
| O=C(C#Cc1c[nH]c(=O)[nH]c1=O)c1ccccc1Cl | – | 96.9 µM | – | 36.3 µM | – | 28.7 µM | – | 29.9 µM | – | 27.3 µM | – | > 100 µM | – | 35.4 µM | – | 35.1 µM | – | 44.3 µM | – | 27.2 µM |
| CN1CCN(CC#Cc2cccc(C(=O)c3cnn(-c4ccc(F)cc4)c3N)c2)CC1 | > 19.3 µM | > 25 µM | > 25 µM | > 25 µM | > 25 µM | > 25 µM | > 25 µM | > 25 µM | > 25 µM | > 25 µM | > 25 µM | > 25 µM | 15.2 µM | > 25 µM | > 25 µM | > 25 µM | > 25 µM | > 25 µM | > 25 µM | > 25 µM |
| C=C1C(=O)O[C@H]2[C@H]1CC/C(CNC(=O)c1c[nH]c3ccc(F)cc13)=C\CC[C@@]1(C)O[C@@H]21 | 1.19 µM | 2.91 µM | 1.99 µM | 11.9 µM | 0.732 µM | 2.21 µM | 1.42 µM | 3.09 µM | 0.486 µM | 1.77 µM | 3.71 µM | 17 µM | 1.54 µM | 4.17 µM | 2.68 µM | 7.94 µM | 1.32 µM | 4.53 µM | 0.639 µM | 2.1 µM |
| COC(=O)C(=O)CC(=O)CCn1ncc(Cl)c(Cl)c1=O | – | 15 µM | – | 49.6 µM | – | 15.7 µM | – | 32.5 µM | – | 17.8 µM | – | 23 µM | – | 28.2 µM | – | 22 µM | – | 22.1 µM | – | 13.3 µM |
| COc1cc(/C=C\[N+](=O)[O-])ccc1O | 2.98 µM | 10.6 µM | 12.3 µM | 24.8 µM | 1.85 µM | 6.03 µM | 2.8 µM | 10.4 µM | 1.9 µM | 3.36 µM | 17.2 µM | 31.5 µM | 1.26 µM | 3.73 µM | 2.99 µM | 10.6 µM | 2.76 µM | 7.23 µM | 2.1 µM | 5.02 µM |
| O=C(CCN1CCN(c2cnc3ccccc3n2)CC1)c1csc2ccccc12 | 38.4 µM | > 100 µM | 47.4 µM | > 100 µM | 62.6 µM | > 100 µM | > 100 µM | > 100 µM | 25 µM | 61.5 µM | 36.1 µM | > 100 µM | 18.9 µM | 49.1 µM | 47.8 µM | > 100 µM | 35.7 µM | > 100 µM | 20.9 µM | 45.4 µM |
| O=C(NNc1nc2c(F)cccc2n2cccc12)c1cnccn1 | 0.604 µM | 50.3 µM | 2.18 µM | 10.3 µM | 0.178 µM | > 48.2 µM | 1.4 µM | 37 µM | 0.454 µM | 13.6 µM | 0.401 µM | 16 µM | 0.556 µM | 45.1 µM | 0.306 µM | 29.2 µM | 0.302 µM | > 100 µM | 0.435 µM | 38.5 µM |
| CCOC(=O)CC1=Nc2ccccc2SC1 | – | > 100 µM | – | > 100 µM | – | > 100 µM | – | > 100 µM | – | > 100 µM | – | > 100 µM | – | > 100 µM | – | > 100 µM | – | > 100 µM | – | > 100 µM |
| CC(CO)(CO)N=Cc1cc(I)cc(I)c1O | – | 44.6 µM | – | 65.4 µM | – | 34.8 µM | – | 27.4 µM | – | 29.2 µM | – | 47.3 µM | – | 32.9 µM | – | 28.3 µM | – | 47.5 µM | – | 53 µM |
| N/C(CC(=O)Nc1cc(C(F)(F)F)ccc1Cl)=N\O | – | > 100 µM | – | > 100 µM | – | > 100 µM | – | > 100 µM | – | > 100 µM | – | > 100 µM | – | > 100 µM | – | > 100 µM | – | > 100 µM | – | > 100 µM |
